In patent US11952365B2, “Anti-viral compounds” (Aligos Therapeutics, Inc., priority 2020, dated 2024):

Legend:
[1] = molecular target: 3CLpro (Severe acute respiratory syndrome coronavirus 2, UniProt P0DTD1); assay: SARS-CoV-2 3CLpro protease assay (duplex, SAMDI-MS); type: biochemical; set-up: For the duplex assay, 3CLpro and HRV3C was added; conditions: 3CLpro, 30 mins preincubation, class symbols; read-out: SARS-Cov-2 IC50
[2] = tested on: SARS-CoV-2-GHB-03021/2020; assay: SARS-CoV-2 Infection Model in Huh7 Cells; type: cell-based; conditions: Severe acute respiratory syndrome coronavirus 2, Huh-7, 96 h, SARS-CoV-2, day 4 p.i., MTS, class symbols
[3] = in vitro; conditions: human
[4] = in vitro; conditions: African green monkey, VeroE6 + CP (CC50), Vero E6-eGFP cells with CP-100356, absence of virus, MTS
[5] = molecular target: HRV3C (Human rhinovirus 14, UniProt P03303); assay: HRV3C protease assay (duplex, SAMDI-MS); type: biochemical, HRV; conditions: HRV3C, 30 mins preincubation, class symbols; read-out: HRV IC50
Procedure, shortened: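 HRV3C was preincubated 30 min with compound alongside 3CLpro at ambient temperature, then two biotinylated peptide substrates were added for 30 min. Quenching used 0.5% formic acid (final). Cleaved product was captured on neutravidin SAMDI arrays and quantified by MALDI-TOF as product/internal-standard AUC ratio; IC50 from four-parameter fit.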

[6] = Cytotoxicity plates without OC43 virus (cell-titer-glo); type: cell-based, human; conditions: human; HeLa cells without OC43 virus, class symbols
Procedure, shortened: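 Run as a virus-free counterpart of the OC43 cytopathic-effect assay. Attached HeLa cells received compound dilutions in EMEM with 2% FBS and were kept 6 days at 33 °C. Cell viability was then measured by CellTiter-Glo luminescence.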

[7] = molecular target: T1, human cathepsin L (Homo sapiens, UniProt P07711); assay: cathepsin L assay; type: biochemical; conditions: 10 pM human cathepsin L, Z-FR-AMC 2 μM, class symbols
T1 construct: purchased R&D Systems
Procedure, shortened: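 Reactions began by adding 2 μM (final) Z-FR-AMC substrate to 10 pM human cathepsin L that had been preincubated 30 min with inhibitor. Kinetic AMC fluorescence at 355/460 nm over 30 min at 2-min intervals; four-parameter fitting gave IC50 values.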

[8] = tested on: SARS-CoV-2-GHB-03021/2020; assay: microbe, parasite or virus in culture; type: cell-based; conditions: Severe acute respiratory syndrome coronavirus 2, Vero C1008, 96 h; read-out: VeroE6 + CP (EC50)
[9] = tested on: human beta-coronavirus OC43; assay: microbe, parasite or virus in culture; type: cell-based; conditions: Betacoronavirus 1, OC43, HeLa, 144 h, OC43 in HeLa cells, 6 days at 33° C., class symbols; read-out: EC50

| Compound | IC50 [1] [µM] | EC50 [2] [µM] | CC50 [3] [µM] | CC50 ([4]; class symbols) [µM] | IC50 [5] [µM] | CC50 at 6 days [6] [µM] | IC50 [7] [µM] | EC50 [8] [µM] | EC50 [9] [µM] | CC50 ([4]; numeric bounds) [µM] |
| --- | --- | --- | --- | --- | --- | --- | --- | --- | --- | --- |
| COc1cccc2[nH]c(C(=O)N3C[C@@H]4CCC[C@@H]4[C@H]3C(=O)NC(C[C@@H]3CCNC3=O)C(=O)C(=O)NCc3ccccc3)cc12 (stereo partly drawn) [Compound 16, 3-[[(1S,3aR,6aS)-2-(4-methoxy-1H-indole-2-carbonyl)-hexahydro-1H-cyclopenta[c]pyrrol-1-yl]formamido]-N-benzyl-2-oxo-4-[(3S)-2-oxopyrrolidin-3-yl]butanamide] | 0.02 to 0.2 | 1 to 10 | > 10 | > 10 | 0.2 to 2 | > 10 | ≥ 10 | 1 to 10 | 0.1 to 1 | – |
| CC(C)NC(=O)C(=O)C(C[C@@H]1CCCNC1=O)NC(=O)[C@@H]1[C@H]2CCC[C@H]2CN1C(=O)c1cc2ccccc2[nH]1 (stereo partly drawn) [Compound 18, (1S,3aR,6aS)-2-(1H-indole-2-carbonyl)-N-(4-(isopropylamino)-3,4-dioxo-1-((S)-2-oxopiperidin-3-yl)butan-2-yl)octahydrocyclopenta[c]pyrrole-1-carboxamide] | 0.02 to 0.2 | 1 to 10 | > 100 | – | 0.2 to 2 | > 10 | ≥ 10 | 1 to 10 | 0.1 to 1 | > 100 |
| O=C(NCc1ccccc1)C(=O)C(C[C@@H]1CCNC1=O)NC(=O)[C@@H]1C[C@@H](C(F)(F)F)CN1C(=O)c1cc2ccccc2[nH]1 (stereo partly drawn) [Compound 19, N-benzyl-3-[[(2S,4R)-1-(1H-indole-2-carbonyl)-4-(trifluoromethyl)pyrrolidin-2-yl]formamido]-2-oxo-4-[(3S)-2-oxopyrrolidin-3-yl]butanamide] | 0.2 to 2 | 1 to 10 | > 10 | – | 2 to 20 | > 10 | 0.1 to 1 | 1 to 10 | 0.1 to 1 | > 100 |
| O=C(NCc1ccccc1)C(=O)[C@H](C[C@@H]1CCNC1=O)NC(=O)[C@@H]1C[C@]2(CN1C(=O)c1cc3ccccc3[nH]1)CC2(F)F [Compound 22] | 0.2 to 2 | 1 to 10 | > 100 | – | 2 to 20 | > 10 | 0.1 to 1 | 10 to 100 | 1 to 10 | > 100 |
| O=C(NCc1ccccc1)C(=O)[C@H](C[C@@H]1CCNC1=O)NC(=O)[C@@H]1C[C@@]2(CN1C(=O)c1cc3ccccc3[nH]1)CC2(F)F [Compound 23] | 0.02 to 0.2 | 1 to 10 | > 100 | – | 2 to 20 | > 10 | 0.1 to 1 | 1 to 10 | 0.1 to 1 | > 100 |
| O=C(NCc1ccccc1)C(=O)[C@H](C[C@@H]1CCNC1=O)NC(=O)[C@@H]1CC2(CCN1C(=O)c1cc3ccccc3[nH]1)CC2 [Compound 24] | 0.02 to 0.2 | 1 to 10 | > 10 | – | 20 to 100 | > 10 | 0.1 to 1 | 1 to 10 | 0.1 to 1 | > 100 |
| C[C@@H]1C[C@@H](C(=O)N[C@@H](C[C@@H]2CCNC2=O)C(=O)C(=O)NCc2ccccc2)N(C(=O)c2cc3ccccc3[nH]2)C1 [Compound 25] | 2 to 20 | 10 to 100 | > 100 | – | 2 to 20 | > 10 | 0.1 to 1 | 10 to 100 | 1 to 10 | > 100 |
| CC1(C)CCN(C(=O)c2cc3ccccc3[nH]2)[C@H](C(=O)NC(C[C@@H]2CCNC2=O)C(=O)C(=O)NCc2ccccc2)C1 (stereo partly drawn) [Compound 26, (2S)—N-(4-(benzylamino)-3,4-dioxo-1-((S)-2-oxopyrrolidin-3-yl)butan-2-yl)-1-(1H-indole-2-carbonyl)-4,4-dimethylpiperidine-2-carboxamide] | 0.02 to 0.2 | 10 to 100 | > 100 | – | 2 to 20 | > 10 | < 0.1 | 10 to 100 | 0.1 to 1 | > 100 |
| COc1cccc2[nH]c(C(=O)N3C[C@@H]4CCC[C@@H]4[C@H]3C(=O)N[C@@H](C[C@@H]3CCNC3=O)C(=O)CO)cc12 [Compound 27, (1S,3aR,6aS)—N-[(2S)-4-hydroxy-3-oxo-1-[(3S)-2-oxopyrrolidin-3-yl]butan-2-yl]-2-(4-methoxy-1H-indole-2-carbonyl)-hexahydro-1H-cyclopenta[c]pyrrole-1-carboxamide] | < 0.02 | 1 to 10 | > 100 | – | 2 to 20 | > 10 | ≥ 10 | 1 to 10 | 0.1 to 1 | > 100 |
| COc1cccc2[nH]c(C(=O)N3C[C@@H]4CCC[C@@H]4[C@H]3C(=O)N[C@@H](C[C@@H]3CCNC3=O)C(=O)COCc3ccccc3)cc12 [Compound 27A, (1S,3aR,6aS)—N-[(2S)-4-(benzyloxy)-3-oxo-1-[(3S)-2-oxopyrrolidin-3-yl]butan-2-yl]-2-(4-methoxy-1H-indole-2-carbonyl)-hexahydro-1H-cyclopenta[c]pyrrole-1-carboxamide] | 0.02 to 0.2 | 1 to 10 | > 10 | – | 2 to 20 | > 10 | ≥ 10 | 1 to 10 | < 0.1 | > 100 |
| CC[C@@H]1C[C@@H](C(=O)N[C@@H](C[C@@H]2CCNC2=O)C(=O)C(=O)NCc2ccccc2)N(C(=O)c2cc3ccccc3[nH]2)C1 [Compound 28] | 0.2 to 2 | < 1 | > 10 | – | 2 to 20 | > 10 | < 0.1 | 1 to 10 | 0.1 to 1 | > 100 |
| COc1cccc2[nH]c(C(=O)N3C[C@]4(C[C@H]3C(=O)NC(C=O)C[C@@H]3CCCNC3=O)CC4(F)F)cc12 (stereo partly drawn) [Compound 29, (3S,6S)-1,1-difluoro-5-(4-methoxy-1H-indole-2-carbonyl)-N-(1-oxo-3-((S)-2-oxopiperidin-3-yl)propan-2-yl)-5-azaspiro[2.4]heptane-6-carboxamide] | 0.02 to 0.2 | 1 to 10 | > 100 | – | 0.02 to 0.2 | > 10 | 0.1 to 1 | 1 to 10 | 1 to 10 | > 100 |
| C=C[C@@H]1C[C@@H](C(=O)N[C@@H](C[C@@H]2CCNC2=O)C(=O)C(=O)NCc2ccccc2)N(C(=O)c2cc3ccccc3[nH]2)C1 [Compound 30] | 0.02 to 0.2 | 1 to 10 | > 100 | – | 0.2 to 2 | > 10 | < 0.1 | 1 to 10 | 0.1 to 1 | > 100 |
| COc1cccc2[nH]c(C(=O)N3CC4(CC4)C[C@H]3C(=O)N[C@@H](C[C@@H]3CCNC3=O)C(=O)CO)cc12 [Compound 31, (6S)—N-[(2S)-4-hydroxy-3-oxo-1-[(3S)-2-oxopyrrolidin-3-yl]butan-2-yl]-5-(4-methoxy-1H-indole-2-carbonyl)-5-azaspiro[2.4]heptane-6-carboxamide] | < 0.02 | 10 to 100 | > 100 | – | 20 to 100 | > 10 | ≥ 10 | 1 to 10 | 0.1 to 1 | > 100 |
| COc1cccc2[nH]c(C(=O)N3C[C@H](c4ccccc4)C[C@H]3C(=O)N[C@@H](C[C@@H]3CCNC3=O)C(=O)CO)cc12 [Compound 32] | 0.02 to 0.2 | 1 to 10 | > 100 | – | 0.2 to 2 | > 10 | ≥ 10 | 1 to 10 | 0.1 to 1 | > 100 |
| COc1cccc2[nH]c(C(=O)N3C[C@]4(C[C@H]3C(=O)NC(C[C@@H]3CCCNC3=O)C(=O)C(=O)NCc3ccccc3)CC4(F)F)cc12 (stereo partly drawn) [Compound 33, N-benzyl-3-{[(3S,6S)-1,1-difluoro-5-(4-methoxy-1H-indole-2-carbonyl)-5-azaspiro[2.4]heptan-6-yl]formamido}-2-oxo-4-[(3S)-2-oxopiperidin-3-yl]butanamide] | 0.02 to 0.2 | 1 to 10 | > 100 | – | 0.2 to 2 | > 10 | 0.1 to 1 | < 1 | 0.1 to 1 | > 100 |
